The text below walks through data of article PMC8143347, “Metabolism and Interspecies Variation of IMMH-010, a Programmed Cell Death Ligand 1 Inhibitor Prodrug” (Pharmaceutics, 2021).

What is called AUC is concentration integrated over time. The Cmax is the highest concentration seen after dosing.

Series [1] is described as follows: PK study in male cynomolgus monkeys. The class given is in vivo, cynomolgus monkey. As to conditions: cynomolgus monkey, plasma, single oral IMMH-010 maleate 5 mg/kg. The protocol:
IMMH-010 maleate was suspended with 0.5% carboxymethyl cellulose to make a 1 mg/mL suspension for PO gavage. Four male cynomolgus monkeys received a single oral dose of IMMH-010 maleate (5 mg/kg). Serial blood samples were collected upto 48 h. The plasma was separated and the plasma concentrations of IMMH-010 and YPD-29B were determined by LC-MS/MS.
(§1) LC-MS/MS was performed using a triple quadrupole mass spectrometer (API 4000, AB Sciex, Framingham, MA, USA) with an ultra-performance liquid chromatography system (LC-30A, Shimadzu, Kyoto, Japan). Analyst 1.6.2 software (AB Sciex) was used for data acquisition and analysis. Mobile phase A was 1 mM ammonium acetate and mobile phase B was methanol. The mobile phase was delivered with the following gradient elution profile: 0–2.8 min, 70% B; 2.9 min, 85% B; 3 min, 90% B; 3.1–6.8 min, 100% B; 6.9–12 min, 70% B. The flow rate was 0.3 mL/min, and the column oven was maintained at 35 °C. The specific transitions monitored were 641.3 → 494.2 for IMMH-010, 597 → 155 for YPD-29B, 512 → 247 for M3, and 524 → 246 for M4.
(§2) All statistics were calculated using GraphPad Prism 8.0 software (San Diego, CA, USA) designed for one-way ANOVA. Pharmacokinetic parameters were calculated with a non-compartmental analysis using WinNonlin Version 6.3 (Pharsight, Mountain View, CA, USA). ADMET predictor V10.0 (Simulations Plus, Inc., Lancaster, CA, USA) and Microsoft Excel (Microsoft, Redmond, WA, USA) were used to process the data (i.e., half-life (t1/2) and hepatic clearance (CLhep) determination). Data were expressed as means ± standard deviations (SD). Results were considered statistically significant if the p-value <0.05, <0.01 and <0.001.

The nature of series [2]: IMMH-010 stability in mouse plasma. The class given is in vitro ADME. As to conditions: 10 μM, 4 °C, 60 min. The protocol:
(§3) IMMH-010 hydrolysis was investigated in human, monkey, rat, and mouse plasma. IMMH-010 (1 μM) was incubated in human, monkey, or […] plasma (0.2 mL) at 37 °C for 120 min. IMMH-010 (10 μM) was incubated in rat or mouse plasma (0.2 mL) at 4 °C for 60 min. The experiments were performed in triplicate. The reactions were initiated by the addition of IMMH-010 (10 μM). After incubation, the reactions were stopped by adding 2 volumes of ice-cold acetonitrile. After vortexing and centrifuging, the concentrations of IMMH-010 and YPD-29B in the supernatant were determined by liquid chromatography with tandem mass spectrometry (LC-MS/MS). The compound olmesartan (10 μM), a substrate of paraoxonase 1, was set as the positive control.

Series [3] in a line: IMMH-010 stability in rat plasma. The class given is in vitro ADME. As to conditions: 10 μM, 4 °C, 60 min. The protocol:
as §3

Series [4] can be described thus: Plasma and tumor PK in B16F10 melanoma xenograft mice. The class given is in vivo, mouse. As to conditions: B16F10 mice, after last oral dose of IMMH-010 maleate 5 mg/kg. Here is the method:
(§4) After the final dose, tumor and blood samples treated with IMMH-010 maleate (5 mg/kg) were collected over 72 h. Blood was exposed in an EP tube containing 500 mM NaF and 0.5% heparin sodium. Plasma samples were obtained by centrifugation, and tumor tissues were homogenized with 3 volumes (w/v) of saline on ice. The concentration of IMMH-010 and YPD-29B in plasma and tumor samples was quantitated by an LC-MS/MS method.
as §1, §2

The target in a further series is T1, CES1 (Homo sapiens, UniProt P23141).
T1 sequence (P23141 18-567): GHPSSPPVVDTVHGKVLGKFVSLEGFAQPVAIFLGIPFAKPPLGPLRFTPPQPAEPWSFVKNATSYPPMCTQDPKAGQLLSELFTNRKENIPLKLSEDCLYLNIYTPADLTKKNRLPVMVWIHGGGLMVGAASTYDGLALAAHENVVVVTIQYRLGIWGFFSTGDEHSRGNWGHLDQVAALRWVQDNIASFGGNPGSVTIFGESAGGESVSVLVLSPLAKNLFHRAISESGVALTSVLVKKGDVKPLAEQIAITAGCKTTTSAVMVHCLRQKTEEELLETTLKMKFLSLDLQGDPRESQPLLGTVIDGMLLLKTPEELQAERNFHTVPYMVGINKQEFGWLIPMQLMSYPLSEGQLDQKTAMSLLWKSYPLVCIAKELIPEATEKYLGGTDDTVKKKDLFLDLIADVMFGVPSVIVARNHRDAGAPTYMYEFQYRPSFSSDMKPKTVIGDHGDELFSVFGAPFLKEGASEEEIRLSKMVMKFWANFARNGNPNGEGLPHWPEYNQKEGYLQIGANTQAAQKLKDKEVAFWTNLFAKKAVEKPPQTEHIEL
As to the kind of experiment: IMMH-010 hydrolysis by recombinant human CES1. As to conditions: 10 μM, CES1 0.1 mg/mL, 15 min, 37 °C. Further details: purchased Cypex Ltd. (Dundee, United Kingdom). The class given is in vitro ADME. Here is the method:
To verify the role of CES1, CES2, and AADAC in human metabolism of […]-010 (10 μM) was incubated individually with recombinant human CES1, CES2, and AADAC (0.1 mg protein/mL) at 37 °C for 15 min. Lidocaine (500 μM), CPT-11 (2 μM), and phenacetin (1 mM), which are substrates of CES1, CES2, and AADAC, were used as positive controls.

The nature of series [5]: Metabolism in monkey liver S9 fractions. The class given is in vitro ADME. Here is the method:
(§5) IMMH-010 metabolism was compared in human, monkey, dog, and rat liver S9 homogenates. IMMH-010 (10 μM) was incubated with liver S9 homogenate protein (0.5 mg protein/mL) and a reduced nicotinamide adenine dinucleotide phosphate (NADPH) regenerating system in a final volume of 0.2 mL Tris-HCl buffer (50 mM, pH 7.4) containing 5 mM MgCl2. The reactions were performed in triplicate. After 2 min of preincubation at 37 °C, reactions were initiated by the addition of IMMH-010 (10 μM). The samples were collected 0, 5, 10, and 20 min after incubation, 2 volumes of acetonitrile were added to terminate the reaction. After vortexing and centrifugation, IMMH-010, YPD-29B, M3, and M4 in the supernatant were analyzed by LC-MS/MS.
as §2

Series [6] is described as follows: Metabolism in rat liver S9 fractions. The class given is in vitro ADME. The protocol:
as §5, §2

Series [7] can be described thus: Plasma and tumor PK in MC38 colon cancer xenograft mice. The class given is in vivo, mouse. As to conditions: after last oral dose of IMMH-010 maleate 5 mg/kg. Here is the method: as §4, §1, §2

For `CC(C)OC(=O)[C@H](CO)NCc1cc(Cl)c(OCc2cccc(-c3ccccc3)c2Br)cc1OCc1cccnc1` [IMMH-010], the AUC in series [1] came out at 47.9 ng·h/mL. Further, the Cmax in series [1] worked out at 9.46 ng/mL. The half-life in series [1] (read-out: mean t1/2β in plasma (converted)) is 310 min. In addition, the Tmax in series [1] (read-out: observed time to peak concentration) was no more than 90 min. Besides, the plasma stability entry in series [2] and in series [3] was “decreased time-dependently” throughout. In addition, the “concentration of IMMH-010 in plasma and tumor tissues” value in series [4] and in series [7] was less than 1 ng/mL throughout. Besides, at CES1, the “remaining amount of IMMH-010” value was 12.9%. Moreover, the results for the “estimated CLhep” value in series [5] (from monkey liver S9) and in series [6] (from rat liver S9) were 37.2 mL/min/kg and 58.4 mL/min/kg, respectively. The half-life at 10 μM in series [5] (pH 7.4, monkey liver S9 0.5 mg protein/mL, 10 μM, NADPH) is 8.28 min; in series [6] (pH 7.4, rat liver S9 0.5 mg protein/mL, 10 μM, NADPH), 7.1 min.
